Drawing on patent US10370333B2 (Sanford Burnham Prebys Medical Discovery Institute, priority 2012, dated 2019), this text covers IC50 for 31 molecules.

Where only a bound is given, the exact number is not on record here.

The target of the experiment is TNAP (Homo sapiens (Human), UniProt P05186). As to the kind of experiment: TNAP (PPi) inhibition assay, pyrophosphate as substrate. The class given is biochemical. The protocol:
Expression plasmids containing a secreted epitope-tagged TNAP were transfected into COS-1 cells for transient expression. The medium was replaced with Opti-MEM 24 h later and serum-free media containing secreted proteins was collected 60 hours after electroporation. The medium was dialyzed against TBS containing 1 mM MgCl2 and […] (to remove phosphate) and filtered through a […] cellulose acetate filter.
To determine the inhibition selectivity for inhibitor candidates, human TNAP, PLAP or IAP were added to microtiter plates followed by addition of the substrate pNPP (0.5 mM) and activity was measured in 1 M DEA-HCl buffer, pH 9.8 or in 1 M Tris-HCl buffer, pH 7.5, containing 1 mM MgCl2 and 20 μM ZnCl2, in the presence of potential inhibitors (0-30 μM). TNAP, PLAP and IAP activities were adjusted to an approximate λA405 nm, equivalent to 1, measured after 30 min. Residual AP activity in the presence of inhibitors was expressed as percentage of the control activity. To investigate the mechanism of inhibition, double reciprocal plots of enzyme activity (expressed as mA405 nm min−1) vs. substrate concentration were constructed, in the presence of various concentrations of added inhibitors (0-30 μM). The y-axis intercepts of the 1/v vs. 1/[S] plots, were then plotted vs. [I] to graphically extract Ki values as the x-intercept in this plot. […] Inhibitors were further tested and sorted based on their kinetic properties at pH 7.4 using PPi, the relevant natural substrate of TNAP. […] Amounts of released phosphate were measured using the Biomol Green Reagent (Biomol Research Laboratories, Inc., Plymouth Meeting, Pa.).
Take `COc1ccc(OC)c(S(=O)(=O)Nc2cncc(-c3cccc(C)c3)c2)c1` [Example III-49, 2,5-Dimethoxy-N-(5-m-tolyl-pyridin-3-yl)-benzenesulfonamide]: the IC50 was 100 to 1000 nM.
The figure for `COc1ccc(Br)cc1S(=O)(=O)Nc1cncc(-c2cccc(C)c2)c1` [Example III-50, 5-Bromo-2-methoxy-N-(5-m-tolyl-pyridin-3-yl)-benzenesulfonamide] is 100 to 1000 nM; for `COc1ccc(OC)c(S(=O)(=O)Nc2cncc(-c3cccc(Cl)c3)c2)c1` [Example III-52, N-[5-(3-Chloro-phenyl)-pyridin-3-yl]-2,5-dimethoxy-benzenesulfonamide] it is 100 to 1000 nM.
The figure for `COc1ccc(Br)cc1S(=O)(=O)Nc1cncc(-c2cccc(Cl)c2)c1` [Example III-53, 5-Bromo-N-[5-(3-chloro-phenyl)-pyridin-3-yl]-2-methoxy-benzenesulfonamide] is 100 to 1000 nM; for `COc1ccc(Cl)cc1S(=O)(=O)Nc1cncc(-c2cccc(Cl)c2)c1` [Example III-54, 5-Chloro-N-[5-(3-chloro-phenyl)-pyridin-3-yl]-2-methoxy-benzenesulfonamide] it is 100 to 1000 nM; for `COc1ccc(-c2cncc(NS(=O)(=O)c3cc(OC)ccc3OC)c2)c(OC)c1` [Example III-55, N-(5-(2,4-Dimethoxyphenyl)pyridin-3-yl)-2,5-dimethoxybenzenesulfonamide] it is under 100 nM.
With `COc1ccc(-c2cncc(NS(=O)(=O)c3cc(Br)ccc3OC)c2)c(OC)c1` [Example III-56, 5-Bromo-N-(5-(2,4-dimethoxyphenyl)pyridin-3-yl)-2-methoxybenzenesulfonamide] the figure was under 100 nM.
As for `COc1ccc(-c2cncc(NS(=O)(=O)c3cc(Cl)ccc3OC)c2)c(OC)c1` [Example III-57, 5-Chloro-N-(5-(2,4-dimethoxyphenyl)pyridin-3-yl)-2-methoxybenzenesulfonamide], the IC50 was under 100 nM.
With `COc1ccc(OC)c(S(=O)(=O)Nc2cncc(-c3ccccn3)c2)c1` [Example III-58, N-([2,3′-Bipyridin]-5′-yl)-2,5-dimethoxybenzenesulfonamide] the figure was under 100 nM.
With `COc1ccc(Br)cc1S(=O)(=O)Nc1cncc(-c2ccccn2)c1` [Example III-59, N-([2,3′-Bipyridin]-5′-yl)-5-bromo-2-methoxybenzenesulfonamide] the figure was under 100 nM.
With `COc1ccc(Cl)cc1S(=O)(=O)Nc1cncc(-c2ccccn2)c1` [Example III-60, N-([2,3′-Bipyridin]-5′-yl)-5-chloro-2-methoxybenzenesulfonamide] the figure was under 100 nM; with `COc1ccc(Br)cc1S(=O)(=O)Nc1cncc(-c2cccnc2)c1` [Example III-62, N-([3,3′-Bipyridin]-5-yl)-5-bromo-2-methoxybenzenesulfonamide], under 100 nM.
Turning to `COc1ccc(Br)cc1S(=O)(=O)Nc1cncc(-c2ccncc2)c1` [Example III-65, N-([3,4′-Bipyridin]-5-yl)-5-bromo-2-methoxybenzenesulfonamide], the IC50 is under 100 nM.
With `COc1ccc(OC)c(S(=O)(=O)Nc2cncc(-c3ccco3)c2)c1` [Example III-67, N-(5-(Furan-2-yl)pyridin-3-yl)-2,5-dimethoxybenzenesulfonamide] the figure was under 100 nM; with `COc1ccc(Br)cc1S(=O)(=O)Nc1cncc(-c2ccco2)c1` [Example III-68, 5-Bromo-N-(5-(furan-2-yl)pyridin-3-yl)-2-methoxybenzenesulfonamide], under 100 nM.
With `COc1ccc(Cl)cc1S(=O)(=O)Nc1cncc(-c2ccco2)c1` [Example III-69, 5-Chloro-N-(5-(furan-2-yl)pyridin-3-yl)-2-methoxybenzenesulfonamide] the figure was under 100 nM; with `COc1ccc(OC)c(S(=O)(=O)Nc2cncc(-c3ccoc3)c2)c1` [Example III-70, N-(5-(Furan-3-yl)pyridin-3-yl)-2,5-dimethoxybenzenesulfonamide], under 100 nM; with `COc1ccc(Br)cc1S(=O)(=O)Nc1cncc(-c2ccoc2)c1` [Example III-71, 5-Bromo-N-(5-(furan-3-yl)pyridin-3-yl)-2-methoxybenzenesulfonamide], under 100 nM.
The figure for `COc1ccc(Cl)cc1S(=O)(=O)Nc1cncc(-c2ccoc2)c1` [Example III-72, 5-Chloro-N-(5-(furan-3-yl)pyridin-3-yl)-2-methoxybenzenesulfonamide] is under 100 nM; for `COc1ccc(OC)c(S(=O)(=O)Nc2cncc(-c3cccs3)c2)c1` [Example III-73, 2,5-Dimethoxy-N-(5-(thiophen-2-yl)pyridin-3-yl)benzenesulfonamide] it is under 100 nM.
For the molecule `COc1ccc(Br)cc1S(=O)(=O)Nc1cncc(-c2cccs2)c1` [Example III-74, 5-Bromo-2-methoxy-N-(5-(thiophen-2-yl)pyridin-3-yl)benzenesulfonamide], the half-inhibitory concentration (IC50) was under 100 nM.
In the case of `COc1ccc(Cl)cc1S(=O)(=O)Nc1cncc(-c2cccs2)c1` [Example III-75, 5-Chloro-2-methoxy-N-(5-(thiophen-2-yl)pyridin-3-yl)benzenesulfonamide], the half-inhibitory concentration (IC50) was under 100 nM.
The molecule `COc1ccc(OC)c(S(=O)(=O)Nc2cncc(-c3ccsc3)c2)c1` [Example III-76, 2,5-Dimethoxy-N-(5-(thiophen-3-yl)pyridin-3-yl)benzenesulfonamide] yielded an IC50 of under 100 nM.
With `COc1ccc(Br)cc1S(=O)(=O)Nc1cncc(-c2ccsc2)c1` [Example III-77, 5-Bromo-2-methoxy-N-(5-(thiophen-3-yl)pyridin-3-yl)benzenesulfonamide] the figure was under 100 nM; with `COc1ccc(Cl)cc1S(=O)(=O)Nc1cncc(-c2ccsc2)c1` [Example III-78, 5-Chloro-2-methoxy-N-(5-(thiophen-3-yl)pyridin-3-yl)benzenesulfonamide], under 100 nM; with `COc1ccc(OC)c(S(=O)(=O)Nc2cncc(-c3nccs3)c2)c1` [Example III-79, 2,5-Dimethoxy-N-(5-(thiazol-2-yl)pyridin-3-yl)benzenesulfonamide], under 100 nM.
With `COc1ccc(Br)cc1S(=O)(=O)Nc1cncc(-c2nccs2)c1` [Example III-80, 5-Bromo-2-methoxy-N-(5-(thiazol-2-yl)pyridin-3-yl)benzenesulfonamide] the figure was under 100 nM; with `COc1ccc(Cl)cc1S(=O)(=O)Nc1cncc(-c2nccs2)c1` [Example III-81, 5-Chloro-2-methoxy-N-(5-(thiazol-2-yl)pyridin-3-yl)benzenesulfonamide], under 100 nM; with `COc1ccc(OC)c(S(=O)(=O)Nc2cncc(-c3cncs3)c2)c1` [Example III-82, 2,5-Dimethoxy-N-(5-(thiazol-5-yl)pyridin-3-yl)benzenesulfonamide], under 100 nM.
With `COc1ccc(Br)cc1S(=O)(=O)Nc1cncc(-c2cncs2)c1` [Example III-83, 5-Bromo-2-methoxy-N-(5-(thiazol-5-yl)pyridin-3-yl)benzenesulfonamide] the figure was under 100 nM; with `COc1ccc(Cl)cc1S(=O)(=O)Nc1cncc(-c2cncs2)c1` [Example III-84, 5-Chloro-2-methoxy-N-(5-(thiazol-5-yl)pyridin-3-yl)benzenesulfonamide], under 100 nM.
